Experimental data: US12193460B2, “Highly soluble steviol glycosides” (PureCircle USA Inc., priority 2016, dated 2025)
Like-named read-outs stand apart in the source and are kept apart here.

Tests used:
[1] = room temperature (25° C.); related art; cited from earlier work
[2] = Water solubility in RO water at room temperature (25° C.); format: physicochemical; settings: g per 100 g solvent
Experimental: Hereinafter, unless specified otherwise, the solubility of material is determined in RO (reverse osmosis) water at room temperature (25° C.). Where the solubility is expressed as “%” it to be understood as number of grams of material soluble in 100 grams of solvent.
The material is deemed soluble at certain concentration if the produced solution has <10 FAU (Formazin Attenuation Unit) turbidity value.

[3] = cited from earlier work; for Rate of dissolution in H2O at 25° C.: grade in words
[4] = Prakash et al., 2008, cited from earlier work

Structure (SMILES)	Rate of dissolution in H2O at 25° C. [3]	Rate of dissolution in H2O at 25° C. (% dissolved) ([3]; in 5 minutes)	further results
C=C1C[C@@]23CC[C@H]4[C@@](C)(CCC[C@@]4(C)C(=O)O[C@@H]4O[C@H](CO)[C@@H](O)[C@H](O)[C@H]4O[C@@H]4O[C@H](CO)[C@@H](O)[C@H](O)[C@H]4O)[C@@H]2CC[C@]1(O[C@@H]1O[C@H](CO)[C@@H](O)[C@H](O[C@@H]2O[C@H](CO)[C@@H](O)[C@H](O)[C@H]2O)[C@H]1O[C@@H]1O[C@H](CO)[C@@H](O)[C@H](O)[C@H]1O)C3 [Rebaudioside D]	–	–	water solubility [1]: less than 0.05%
C=C1C[C@@]23CC[C@H]4[C@@](C)(CCC[C@@]4(C)C(=O)O[C@@H]4O[C@H](CO)[C@@H](O)[C@H](O[C@@H]5O[C@H](CO)[C@@H](O)[C@H](O)[C@H]5O)[C@H]4O[C@@H]4O[C@H](CO)[C@@H](O)[C@H](O)[C@H]4O)[C@@H]2CC[C@]1(O[C@@H]1O[C@H](CO)[C@@H](O)[C@H](O[C@@H]2O[C@H](CO)[C@@H](O)[C@H](O)[C@H]2O)[C@H]1O[C@@H]1O[C@H](CO)[C@@H](O)[C@H](O)[C@H]1O)C3 [rebaudioside M]	–	–	solubility in water [2]: 2%
C=C1C[C@@]23CC[C@H]4[C@@](C)(CCC[C@@]4(C)C(=O)O[C@@H]4O[C@H](CO)[C@@H](O)[C@H](O)[C@H]4O)[C@@H]2CC[C@]1(O[C@@H]1O[C@H](CO)[C@@H](O)[C@H](O[C@@H]2O[C@H](CO)[C@@H](O)[C@H](O)[C@H]2O)[C@H]1O[C@@H]1O[C@H](CO)[C@@H](O)[C@H](O)[C@H]1O)C3 [Form 1, Rebaudioside A]	Very low	–	Rate of dissolution in H2O at 25° C. (% dissolved) ([3]; in 60 minutes): (<0.2% in 60; solubility (in words) ([4]; listed as hydrate form of Rebaudioside A): lowest solubility
C=C1C[C@@]23CC[C@H]4[C@@](C)(CCC[C@@]4(C)C(=O)O[C@@H]4O[C@H](CO)[C@@H](O)[C@H](O)[C@H]4O)[C@@H]2CC[C@]1(O[C@@H]1O[C@H](CO)[C@@H](O)[C@H](O[C@@H]2O[C@H](CO)[C@@H](O)[C@H](O)[C@H]2O)[C@H]1O[C@@H]1O[C@H](CO)[C@@H](O)[C@H](O)[C@H]1O)C3 [Form 4, Rebaudioside A]	High	> 35%	solubility (in words) ([4]; listed as rebaudioside A amorphous forms): high solubility
C=C1C[C@@]23CC[C@H]4[C@@](C)(CCC[C@@]4(C)C(=O)O[C@@H]4O[C@H](CO)[C@@H](O)[C@H](O[C@@H]5O[C@H](CO)[C@@H](O)[C@H](O)[C@H]5O)[C@H]4O[C@@H]4O[C@H](CO)[C@@H](O)[C@H](O)[C@H]4O)[C@@H]2CC[C@]1(O[C@@H]1O[C@H](CO)[C@@H](O)[C@H](O[C@@H]2O[C@H](CO)[C@@H](O)[C@H](O)[C@H]2O)[C@H]1O[C@@H]1O[C@H](CO)[C@@H](O)[C@H](O)[C@H]1O)C3 [Rebaudioside M]	–	–	solubility in water ([2]; listed as Crystalline Rebaudioside M): 0%-0.1; water solubility [1]: about 0.1%
C=C1C[C@@]23CC[C@H]4[C@@](C)(CCC[C@@]4(C)C(=O)O[C@@H]4O[C@H](CO)[C@@H](O)[C@H](O)[C@H]4O)[C@@H]2CC[C@]1(O[C@@H]1O[C@H](CO)[C@@H](O)[C@H](O[C@@H]2O[C@H](CO)[C@@H](O)[C@H](O)[C@H]2O)[C@H]1O[C@@H]1O[C@H](CO)[C@@H](O)[C@H](O)[C@H]1O)C3 [Form 2, Rebaudioside A]	Intermediate	(<30% in 5	–
C=C1C[C@@]23CC[C@H]4[C@@](C)(CCC[C@@]4(C)C(=O)O[C@@H]4O[C@H](CO)[C@@H](O)[C@H](O)[C@H]4O)[C@@H]2CC[C@]1(O[C@@H]1O[C@H](CO)[C@@H](O)[C@H](O[C@@H]2O[C@H](CO)[C@@H](O)[C@H](O)[C@H]2O)[C@H]1O[C@@H]1O[C@H](CO)[C@@H](O)[C@H](O)[C@H]1O)C3 [Form 3, Rebaudioside A]	High	> 30%	–
